{"source": "patent US20040097534A1", "about": "“Composition for the protection and regeneration of nerve cells containing berberine derivatives” (EUGENBIO INC., priority 2001, published 2004)", "key": {"SH-SY5Y cells": {"test_system": "SH-SY5Y cells", "test": "MTT assay, SH-SY5Y survival under serum deprivation-induced stress", "type": "cell-based, human", "conditions": "for O.D.: 2 days; for Average (O.D. relative to N2): N2 = 100%", "procedure": "(§1) Cell injuries under condition of serum deprivation-induced stress and oxidative stress were measured by MTT assay. For MTT assay, Cells were seeded into N2 medium in an amount of 7.5×10^3 cells, and then a neurotoxin or a nerve growth factor was added thereto to differentiate the cells and then 0.1 volume of 4 mg/ml MTT was further added. The mixture was stored at 37° C. for 3-4 hours. After 100 μl of solubilization buffer was added to the mixture and then stored for 24 hours, O.D. values were measured by ELISA assay.\nIn order to prepare a stroke-like cell model using SH-SY5Y, the cells were cultured under serum deprivation. […] Retinoic acid, which induces the differentiation of SH-SY5Y as a cell differentiation factor, was used as a positive control. 3 hours before depriving serum, the cells were treated with berberine (0.25˜3 μg). The cells were cultured in chemically defined media (N2) for 2 days to induce nerve regeneration (see, Table 2 and FIG. 4a)."}, "PC12 cells": {"test_system": "PC12 cells", "test": "MTT assay, PC12 survival under dexamethasone (glucocorticoid) stress", "type": "cell-based, rat", "procedure": "as §1\nGlucocorticoids are hormones secreted from the adrenal glands, and involve in a variety of metabolic processes including glycometabolism. In particular, stress causes release of glucocorticoids to reduce cell divisions of neuronal stem cells in the brain and induce apoptosis of nerve cells. Therefore, PC12 cells were treated with dexamethasone, a glucocorticoid derivative, to examine the effect of berberine against apoptosis of nerve cells. 3 hours after treatment with berberine, dexamethasone (1) was added to a culture solution and incubated for 2 days to induce neuroregeneration (see, Table 5 and FIG. 5b)."}, "sciatic nerves": {"test_system": "sciatic nerves", "test": "Regeneration of crushed sciatic nerves (axons, myelin sheaths)", "type": "in vivo, Sprague-Dawley white rat", "conditions": "for number of axons longer than 300 μm / number of myelin sheaths longer than 200 μm: berberine intraperitoneal", "procedure": "After a Sprague-Dawley white rat (male, weighing about 200 g) was anesthetized with pentobarbital (50 mg/kg), the left sciatic nerve was exposed at the sciatic notch. Subsequently, all nerve fibers except the artery in the sciatic nerve were cut, or both sides of nerve fibers were tied using #9 blood vessel suture, and then the center of the nerve fibers were cut using iridectomy scissors. In a crush model, nerve fibers were thoroughly crushed twice using a crush clip. After nerve fibers were injured, proximal stumps and distal stumps were obtained over various time intervals (6 hours, 1 day, 3 day, 7 day, 14 day, 21 day and 28 day), respectively, before testing. For comparison, the right sciatic nerve was used as a control group.\nAfter a white rat was anesthetized, its sciatic nerves were exposed and crushed. PBS or berberine was intraperitoneally injected into the rat. 1 week, 2 weeks and 4 weeks after suturing, nerve regeneration was observed. The rat was perfused and then sciatic nerves were obtained from the distal stump. After the obtained sciatic nerves were cryosected to a thickness of 7-10 μm, cryosected sciatic nerves were double-stained using beta-tubulin isotypeIII (cy3, red), which is an axon marker, and MBP ([…], cy2, green) antibody, which is a differentiation (myelin) marker of Schwann cells. It was observed under a confocal microscope that axons (see, Table 11) were longer than 300 μm and myelin sheaths (see, Table 12) were longer than 200 μm (see, FIGS. 13 to 15, 19a and 19b)."}, "[1]": {"test_system": "nerve cells in cerebral slices", "test": "Apoptosis of nerve cells induced by MK-801, TUNEL staining of cerebral slices", "type": "in vivo", "conditions": "for apoptosis of nerve cells (TUNEL staining): berberine (5 mg/kg) alone, intraperitoneal, young white rats", "text": "All groups were intraperitoneally injected.\nExperimental animals were sacrificed under anesthetization and their brains were excised. The excised brains were fixed with formalin and tissue sections were obtained. The tissue sections were stained by TUNEL method, and photographed (×1.25 and ×400) using an optical microscope (Olympus BX 50).\nThe number of TUNEL-positive dead nerve cells in the same area of cerebral slices of 12 rats per group was counted, and the numbers were averaged (FIG. 1)."}, "bcl-2 mRNA": {"test_system": "bcl-2 mRNA", "test": "Expression of bcl-2 mRNA in white rat cerebra (RT-PCR)", "type": "in vivo", "conditions": "berberine 5 mg/kg intraperitoneally", "procedure": "All groups were intraperitoneally injected. RT-PCR was performed to examine the expression of bcl-2 mRNA, which is an anti-apoptosis gene expressed in cerebral tissues. GAPDH mRNA was used as a control group. The expression of GAPDH mRNA was also performed by RT-PCR method.\n1 ml of TRI Reagent (Molecular Research Center Inc., USA) was added to 100 mg of cerebral tissue sections, and the mixture was homogenized and then left at room temperature for 10 minutes. 0.1 ml of BCP (Sigma, USA) was added to 1 ml of the homogenized mixture, mixed with each other for 1 minute, and then left at 4° C. for 10 minutes. After the mixture was centrifuged at 12,000 rpm, 4° C. for 15 minutes, the supernatant was added to cold isopropanol and left at a temperature of −20° C. for 16 hours. Thereafter, the supernatant was centrifuged at 12,000 rpm, 4 for 15 minutes to obtain RNA precipitates. The obtained RNA precipitates were washed with DEPC diethylpyrocarbonate)-treated cold ethanol (75%), and dried using SpeedVac. The dried RNA was dissolved in DEPC-treated distilled water. After the concentration and purity of RNA were spectrophotometrically measured at 260 nm, the isolated RNA was stored at a temperature of −20° C. before use. […]\n10 μl of amplified PCR product was electrophoresed in a 1.5% agarose gel, and the density was measured using a gel documentation system (Bio-Rad Lab, USA)."}, "[2]": {"conditions": "N2 + dexamethasone + berberine 0.25 μg/ml"}, "[3]": {"conditions": "N2 + dexamethasone + berberine 1.5 μg/ml"}, "[4]": {"conditions": "N2 + dexamethasone + berberine 3 μg/ml"}}, "note": "“Also recorded” adds a separate entry of the source."}
{"molecule": "COc1ccc2cc3[n+](cc2c1OC)CCc1cc2c(cc1-3)OCO2", "note": "[Berberine, 7,8,13,13a-tetradihydro-9,10-dimethoxy-2,3-(methylenedioxy) berbinium]", "values": [{"measurement": "O.D.", "setting": "SH-SY5Y cells; N2 + berberine 0.25 μg/ml", "value": 0.076}, {"measurement": "Average (O.D. relative to N2)", "setting": "SH-SY5Y cells; N2 + berberine 0.25 μg/ml", "value": 113, "unit": "%"}, {"measurement": "O.D.", "setting": "SH-SY5Y cells; N2 + berberine 1.5 μg/ml", "value": 0.118}, {"measurement": "Average (O.D. relative to N2)", "setting": "SH-SY5Y cells; N2 + berberine 1.5 μg/ml", "value": 177, "unit": "%"}, {"measurement": "O.D.", "setting": "SH-SY5Y cells; N2 + berberine 3 μg/ml", "value": 0.104}, {"measurement": "Average (O.D. relative to N2)", "setting": "SH-SY5Y cells; N2 + berberine 3 μg/ml", "value": 155, "unit": "%"}, {"measurement": "cell survival", "setting": "SH-SY5Y cells; serum deprivation, berberine 3 μg/ml compared with 1.5 μg/ml", "value": "somewhat decreased"}, {"measurement": "cell survival rate versus control group", "setting": "SH-SY5Y cells; serum deprivation, berberine (1.5 μg/ml elsewhere in the source)", "value": "two times higher"}, {"measurement": "Average (O.D. relative to dexamethasone alone)", "setting": "PC12 cells; [2]", "value": 111, "unit": "%"}, {"measurement": "O.D.", "setting": "PC12 cells; [2]", "value": 0.214}, {"measurement": "Average (O.D. relative to dexamethasone alone)", "setting": "PC12 cells; [3]", "value": 127, "unit": "%"}, {"measurement": "O.D.", "setting": "PC12 cells; [3]", "value": 0.245}, {"measurement": "Average (O.D. relative to dexamethasone alone)", "setting": "PC12 cells; [4]", "value": 132, "unit": "%"}, {"measurement": "O.D.", "setting": "PC12 cells; [4]", "value": 0.253}, {"measurement": "cell survival rate increase", "setting": "PC12 cells; dexamethasone stress, 2 days", "value": "about 1.3 times"}, {"measurement": "number of myelin sheaths longer than 200 μm, increase", "setting": "sciatic nerves; 1 week", "value": "doubled"}, {"measurement": "effect on axonal growth and the regeneration of myelin sheaths", "setting": "sciatic nerves; 1 week after operation", "value": "not great"}, {"measurement": "number of axons longer than 300 μm", "setting": "sciatic nerves; 1 week, PBS = 14.5", "value": 24.6}, {"measurement": "number of myelin sheaths longer than 200 μm", "setting": "sciatic nerves; 1 week, PBS = 16.5", "value": 35}, {"measurement": "number of axons longer than 300 μm", "setting": "sciatic nerves; 2 weeks, PBS = 20.5", "value": 32.3}, {"measurement": "number of myelin sheaths longer than 200 μm", "setting": "sciatic nerves; 2 weeks, PBS = 43", "value": 88.6}, {"measurement": "number of axons (neurites) longer than 300 μm, increase", "setting": "sciatic nerves; 4 weeks", "value": "doubled"}, {"measurement": "number of myelin sheaths longer than 200 μm, increase", "setting": "sciatic nerves; 4 weeks", "value": 3, "unit": "times"}, {"measurement": "apoptosis of nerve cells (TUNEL staining)", "setting": "[1]", "value": "did not induce apoptosis of nerve cells"}, {"measurement": "apoptosis of nerve cells (TUNEL staining)", "setting": "[1]; listed as berberine", "value": "apoptosis of nerve cells was not observed"}, {"measurement": "inhibition of apoptosis of nerve cells induced by MK-801", "setting": "[1]; pretreated with berberine (5 mg/kg) for 5 days, then MK-801 (0.5 mg/kg) i.p.", "value": "considerably inhibits apoptosis of nerve cells induced by MK-801"}, {"measurement": "expression of bcl-2 mRNA in cerebral tissues", "setting": "bcl-2 mRNA", "value": "High bcl-2 mRNA Expression"}, {"measurement": "expression of bcl-2 mRNA in cerebral tissues", "setting": "bcl-2 mRNA; listed as berberine", "value": "higher than in the control group; also recorded: increased"}]}
